Experimental data published in DBAASP.
Values after ≈ are worked out from the molar mass of the structure shown.

Experiments:
Test in all cases: ≥ marks a high value that may be exact or a test limit, other limits are often not marked, values filed in µg/mL are converted to µM
[1] = tested on: Escherichia coli NBRC 14237
[2] = tested on: Micrococcus luteus NBRC 12708
[3] = tested on: Pseudomonas aeruginosa NBRC 12582
[4] = tested on: Staphylococcus aureus NBRC 12732
Candida glabrata 090902 = tested on: Candida glabrata 090902
[5] = tested on: Enterococcus faecalis 981
[6] = tested on: Nocardia asteroides 201118
[7] = tested on: Psychrobacter faecalis X29
[8] = tested on: Staphylococcus aureus ATCC 25923
[9] = tested on: Escherichia coli ATCC 25922
[10] = tested on: Klebsiella pneumoniae ATCC 700603
[11] = tested on: Pseudomonas aeruginosa ATCC 27853
[12] = tested on: Pseudomonas aeruginosa PA006
[13] = tested on: Pseudomonas aeruginosa PAO1
[14] = tested on: Pseudomonas aeruginosa Pa1-SA2
[15] = tested on: Pseudomonas aeruginosa Pa4-SA2
[16] = tested on: Salmonella enterica subsp. enterica serovar Typhimurium ATCC 14028
[17] = tested on: Staphylococcus aureus ATCC 29313
Bacillus cereus = tested on: Bacillus cereus
Bacillus subtilis = tested on: Bacillus subtilis
[18] = tested on: Candida albicans CCM 8186
[19] = tested on: Candida glabrata CCM 8270
Candida krusei CCM 8271 = tested on: Candida krusei CCM 8271
[20] = tested on: Candida parapsilosis CCM 8260
[21] = tested on: Candida tropicalis CCM 8264
[22] = tested on: Erwinia amylovora PMV 6076
[23] = tested on: Escherichia coli PCM 2057
[24] = tested on: Fusobacterium nucleatum ATCC 10953
[25] = tested on: Porphyromonas gingivalis ATCC 33277
[26] = tested on: Pseudomonas aeruginosa PCM 499
[27] = tested on: Pseudomonas syringae pv. actinidiae Psa3700.1.1
[28] = tested on: Pseudomonas syringae pv. syringae EPS 94
[29] = tested on: Staphylococcus aureus PCM 2054
[30] = tested on: Staphylococcus epidermidis PCM 2118
[31] = tested on: Xanthomonas arboricola pv. pruni CFBP 5563
[32] = tested on: Xanthomonas campestris pv. Vesicatoria 2133-2
[33] = tested on: Xanthomonas fragariae Xf349-9A
[34] = tested on: Acinetobacter baumannii CICC 22934
Bacillus cereus AS1.126 = tested on: Bacillus cereus AS1.126
[35] = tested on: Enterobacter cloacae CGMCC 1.58
[36] = tested on: Enterococcus faecalis CGMCC 1.595
[37] = tested on: Enterococcus faecium CGMCC 1.2334
Escherichia coli AS1.349 = tested on: Escherichia coli AS1.349
[38] = tested on: Klebsiella aerogenes CGMCC 1.876
[39] = tested on: Klebsiella pneumoniae subsp. pneumoniae CGMCC 1.176
[40] = tested on: Lactococcus lactis AS1.1690
[41] = tested on: Proteus mirabilis CICC 22931
[42] = tested on: Pseudomonas aeruginosa CGMCC 1.860
[43] = tested on: Staphylococcus aureus AS1.72

CC[C@H](C)[C@H](NC(=O)[C@@H](N)Cc1ccccc1)C(=O)NCC(=O)N[C@@H](C)C(=O)N[C@@H](CC(C)C)C(=O)N[C@@H](CC(C)C)C(=O)NCC(=O)N1CCC[C@H]1C(=O)N[C@@H](CC(C)C)C(=O)N[C@@H](CC(C)C)C(=O)N[C@@H](CC(N)=O)C(=O)N[C@@H](CC(C)C)C(=O)N[C@@H](CC(C)C)C(=O)N[C@@H](CCCCN)C(N)=O [FIGALLGPLLNLLK]
MIC [1]: ≥ 50 µM | MIC [2]: 12.5 µM (≈ 18.5 µg/mL) | MIC [3]: ≥ 50 µM | MIC [4]: 12.5 µM (≈ 18.5 µg/mL)

CC[C@H](C)[C@H](NC(=O)[C@H](CC(C)C)NC(=O)CNC(=O)[C@@H]1CCCN1C(=O)[C@H](CC(C)C)NC(=O)[C@@H](N)Cc1ccccc1)C(=O)N[C@@H](CCCCN)C(=O)N[C@@H](C)C(=O)N[C@@H](C)C(=O)N[C@H](C(=O)NCC(=O)N[C@H](C(=O)NCC(=O)N[C@@H](CO)C(=O)N[C@H](C(=O)N[C@H](C(=O)N[C@@H](CC(C)C)C(=O)N[C@H]1CSSC[C@@H](C(=O)O)NC(=O)[C@H](CCCCN)NC(=O)[C@H](CCCCN)NC(=O)[C@H]([C@@H](C)O)NC(=O)[C@H]([C@@H](C)CC)NC(=O)[C@H](CCCCN)NC1=O)[C@@H](C)CC)[C@@H](C)O)C(C)C)C(C)C [FLPGLIKAAVGVGSTILCKITKKC]
MIC (Candida glabrata 090902): 12.5 µM (≈ 30.7 µg/mL) | MIC [5]: 6.3 µM (≈ 15.5 µg/mL) | MIC [6]: 6.3 µM (≈ 15.5 µg/mL) | MIC [7]: ≥ 50 µM | MIC [8]: 12.5 µM (≈ 30.7 µg/mL)

CC[C@H](C)[C@H](NC(=O)[C@H](C)NC(=O)[C@H](Cc1cnc[nH]1)NC(=O)[C@H](C)NC(=O)[C@@H](NC(=O)[C@H](CC(C)C)NC(=O)[C@H](CC(=O)O)NC(=O)[C@H](CCCCN)NC(=O)CNC(=O)[C@H](C)NC(=O)CNC(=O)[C@H](CCCCN)NC(=O)[C@@H](NC(=O)[C@@H](NC(=O)[C@H](CC(=O)O)NC(=O)[C@@H](NC(=O)[C@@H](NC(=O)CN)C(C)C)[C@@H](C)CC)[C@@H](C)CC)[C@@H](C)CC)[C@@H](C)CC)C(=O)NCC(=O)N[C@@H](CCCCN)C(=O)N[C@@H](CC(C)C)C(=O)N[C@@H](C)C(=O)N[C@@H](CCC(=O)O)C(=O)N[C@@H](CCCCN)C(=O)N[C@H](C(N)=O)C(C)C [GVIDIIKGAGKDLIAHAIGKLAEKV]
MIC [9]: 316 µM (≈ 800 µg/mL) | MIC [10]: > 316 µM | MIC [11]: > 202 µM | MIC [12]: 6.32 µM (≈ 16 µg/mL) | MIC [13]: 202 µM (≈ 512 µg/mL) | MIC [14]: ≥ 50.6 µM | MIC [15]: 25.3 µM (≈ 64 µg/mL) | MIC [16]: > 316 µM | MIC [17]: ≥ 316 µM

CC(C)[C@H](NC(=O)[C@H](Cc1c[nH]c2ccccc12)NC(=O)[C@H](Cc1ccccc1)NC(=O)[C@@H](NC(=O)[C@@H](NC(=O)[C@H](CCCCN)NC(=O)[C@@H](N)CCCCN)C(C)C)C(C)C)C(=O)N[C@@H](CCCCN)C(=O)N[C@@H](Cc1ccccc1)C(=O)N[C@@H](CCCCN)C(N)=O [KKVVFWVKFK]
MIC (Bacillus cereus): ≥ 38.2 µM | MIC (Bacillus subtilis): 5.96 µM (≈ 7.79 µg/mL) | MIC [18]: 5.96 µM (≈ 7.79 µg/mL) | MIC [19]: 11.9 µM (≈ 15.6 µg/mL) | MIC (Candida krusei CCM 8271): 5.96 µM (≈ 7.79 µg/mL) | MIC [20]: 1.53 µM (≈ 2 µg/mL) | MIC [21]: 1.53 µM (≈ 2 µg/mL) | MIC [22]: 8.8 µM (≈ 11.5 µg/mL) | MIC [23]: 5.96 µM (≈ 7.79 µg/mL) | MIC [24]: 11.9 µM (≈ 15.6 µg/mL) | MIC [25]: ≥ 95.5 µM | MIC [26]: 19.1 µM (≈ 25 µg/mL) | MIC [27]: 2.23 µM (≈ 2.91 µg/mL) | MIC [28]: 8.8 µM (≈ 11.5 µg/mL) | MIC [29]: 19.1 µM (≈ 25 µg/mL) | MIC [30]: 5.96 µM (≈ 7.79 µg/mL) | MIC [31]: 1.13 µM (≈ 1.48 µg/mL) | MIC [32]: 8.8 µM (≈ 11.5 µg/mL) | MIC [33]: 4.38 µM (≈ 5.73 µg/mL)

CC(C)C[C@H](NC(=O)[C@H](CCCCN)NC(=O)[C@H](CCCN=C(N)N)NC(=O)[C@H](Cc1cnc[nH]1)NC(=O)[C@H](C)NC(=O)[C@H](CCCN=C(N)N)NC(=O)[C@H](Cc1cnc[nH]1)NC(=O)[C@H](CC(C)C)NC(=O)[C@H](Cc1ccccc1)NC(=O)[C@H](CCCN=C(N)N)NC(=O)[C@H](CCCN=C(N)N)NC(=O)[C@H](CC(C)C)NC(=O)[C@H](Cc1cnc[nH]1)NC(=O)[C@H](CCCN=C(N)N)NC(=O)[C@H](CC(C)C)NC(=O)[C@@H](NC(=O)[C@H](CCCCN)NC(=O)[C@@H](N)CO)C(C)C)C(=O)O [SKVLRHLRRFLHRAHRKL]
MIC [34]: ≥ 100 µM | MIC (Bacillus cereus AS1.126): 1.56 µM (≈ 3.63 µg/mL) | MIC [35]: ≥ 100 µM | MIC [36]: 3.13 µM (≈ 7.27 µg/mL) | MIC [37]: 3.13 µM (≈ 7.27 µg/mL) | MIC (Escherichia coli AS1.349): ≥ 100 µM | MIC [38]: ≥ 100 µM | MIC [39]: ≥ 100 µM | MIC [40]: 3.13 µM (≈ 7.27 µg/mL) | MIC [41]: ≥ 100 µM | MIC [42]: ≥ 100 µM | MIC [43]: 2.34 µM (≈ 5.44 µg/mL)
